Measurements taken from ChEMBL document CHEMBL1201862, “PubChem BioAssay data set” (2004).
Counter-ions that a name gives are not always drawn.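 How tested: cells in 96-well plates exposed to compound for 48 hours at five concentrations. GI50 = concentration required for 50% inhibition of growth.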 Activity calls are given as the source filed them. Rule as the data show it: active = GI50 up to about 1.1 µM and inactive = higher.

Legend:
Assay in all cases: NCI anticancer screen, dose series, 48 h
A549 = system: A549
KM12 = system: KM12
HOP-92 = system: HOP-92
XF498 = system: XF498
SNB-19 = system: SNB-19
NCI-H23 = system: NCI-H23
UACC-257 = system: UACC-257
HOP-62 = system: HOP-62
MOLT-4 = system: MOLT-4
Malme-3M = system: Malme-3M
786-0 = system: 786-0
NCI-H522 = system: NCI-H522
HL-60 = system: HL-60
UACC-62 = system: UACC-62
CCRF-CEM = system: CCRF-CEM
SF-539 = system: SF-539
HCT-15 = system: HCT-15
MDA-MB-435 = system: MDA-MB-435
MCF7 = system: MCF7
T47D = system: T47D

SMILES	GI50 (A549)	GI50 (KM12)	GI50 (HOP-92)	GI50 (XF498)	GI50 (SNB-19)	GI50 (NCI-H23)	GI50 (UACC-257)	GI50 (HOP-62)	GI50 (MOLT-4)	GI50 (Malme-3M)	GI50 (786-0)	GI50 (NCI-H522)	GI50 (HL-60)	GI50 (UACC-62)	GI50 (CCRF-CEM)	GI50 (SF-539)	GI50 (HCT-15) [µM]	GI50 (MDA-MB-435)	GI50 (MCF7)	GI50 (T47D)
NCC1(N2CCOCC2)C2CCCC21CNc1ccccc1 (centres undefined)	> 100 µM (inactive)	> 100 µM (inactive)	41.9 µM (inactive)	69.8 µM (inactive)	> 100 µM (inactive)	> 100 µM (inactive)	> 100 µM (inactive)	> 100 µM (inactive)	92.3 µM (inactive)	> 100 µM (inactive)	> 100 µM (inactive)	> 100 µM (inactive)	53.8 µM (inactive)	> 100 µM (inactive)	> 100 µM (inactive)	> 100 µM (inactive)				
CN(C)/C(=N/C(=O)Nc1ccccc1)SCc1ccccc1	> 100 µM (inactive)	> 100 µM (inactive)		6.43 µM (inactive)	> 100 µM (inactive)	> 100 µM (inactive)	> 100 µM (inactive)	> 100 µM (inactive)	73.3 µM (inactive)	> 100 µM (inactive)	> 100 µM (inactive)	91.2 µM (inactive)	> 100 µM (inactive)	> 100 µM (inactive)	> 100 µM (inactive)	> 100 µM (inactive)	> 100			
O=C(O)CC12C3C4C5C3C1C5C42 (centres undefined)	> 100 µM (inactive)	> 100 µM (inactive)		> 100 µM (inactive)	> 100 µM (inactive)	> 100 µM (inactive)	> 100 µM (inactive)	> 100 µM (inactive)	> 100 µM (inactive)	> 100 µM (inactive)	> 100 µM (inactive)	> 100 µM (inactive)	> 100 µM (inactive)	> 100 µM (inactive)	> 100 µM (inactive)	> 100 µM (inactive)	> 100			
CC(=O)OC1COC(n2ccc3cc(Br)c([N+](=O)[O-])cc32)C(OC(C)=O)C1OC(C)=O (centres undefined)	27.8 µM (inactive)	34.2 µM (inactive)	9.44 µM (inactive)	14.3 µM (inactive)	30 µM (inactive)	23.3 µM (inactive)	19.2 µM (inactive)	30.5 µM (inactive)	> 10 µM (inactive)	24.2 µM (inactive)	33.3 µM (inactive)	> 10 µM (inactive)		17.6 µM (inactive)	21.1 µM (inactive)	22.2 µM (inactive)	30.9			
O=C1OC(c2ccccc2)=N/C1=C/N1CCCC1C(=O)O (centres undefined)	> 100 µM (inactive)	> 100 µM (inactive)	> 100 µM (inactive)	> 100 µM (inactive)	> 100 µM (inactive)	> 100 µM (inactive)	> 100 µM (inactive)	> 100 µM (inactive)		> 100 µM (inactive)	> 100 µM (inactive)	> 100 µM (inactive)	> 100 µM (inactive)	> 100 µM (inactive)	> 100 µM (inactive)	> 100 µM (inactive)	> 100			
CN1C[C@H](C(=O)N[C@]2(C)O[C@@]3(O)[C@@H]4CCCN4C(=O)[C@H](Cc4ccccc4)N3C2=O)C=C2c3cccc4[nH]cc(c34)C[C@H]21 [ERGOTAMINE TARTRATE]	37.8 µM (inactive)	28.8 µM (inactive)	16.9 µM (inactive)		35.1 µM (inactive)	21.5 µM (inactive)	13.9 µM (inactive)	23.9 µM (inactive)	23.9 µM (inactive)	18.3 µM (inactive)	20 µM (inactive)	16.3 µM (inactive)	19.2 µM (inactive)	16 µM (inactive)	20 µM (inactive)	12.1 µM (inactive)	18.9	15.9 µM (inactive)	20.7 µM (inactive)	33 µM (inactive)
